Values quoted from earlier work, collected in patent publication US6849271B2, “Microcapsule matrix microspheres, absorption-enhancing pharmaceutical compositions and methods” (Verion, Inc., priority 2001, dated 2005).

settings: published by the FDA

Compound | permeability class
CC1(C)S[C@@H]2[C@H](NC(=O)[C@H](N)c3ccc(O)cc3)C(=O)N2[C@H]1C(=O)O [Amoxicillin] | Low
C[C@](N)(Cc1ccc(O)c(O)c1)C(=O)O [L-Methyldopa] | Low
CNC(=C[N+](=O)[O-])NCCSCc1ccc(CN(C)C)o1 [Ranitidine] | Low
OC[C@@H](O)[C@@H](O)[C@H](O)[C@H](O)CO [Mannitol] | Low
